Results on 12 compounds are retold here after patent publication US8748426B2, “Inhibitors of diacylglycerol acyl transferase” (Piramal Enterprises Limited, priority 2009, dated 2014).

In one assay the target is T1, hDGAT1 (Homo sapiens, UniProt O75907).
T1 sequence (O75907 1-488): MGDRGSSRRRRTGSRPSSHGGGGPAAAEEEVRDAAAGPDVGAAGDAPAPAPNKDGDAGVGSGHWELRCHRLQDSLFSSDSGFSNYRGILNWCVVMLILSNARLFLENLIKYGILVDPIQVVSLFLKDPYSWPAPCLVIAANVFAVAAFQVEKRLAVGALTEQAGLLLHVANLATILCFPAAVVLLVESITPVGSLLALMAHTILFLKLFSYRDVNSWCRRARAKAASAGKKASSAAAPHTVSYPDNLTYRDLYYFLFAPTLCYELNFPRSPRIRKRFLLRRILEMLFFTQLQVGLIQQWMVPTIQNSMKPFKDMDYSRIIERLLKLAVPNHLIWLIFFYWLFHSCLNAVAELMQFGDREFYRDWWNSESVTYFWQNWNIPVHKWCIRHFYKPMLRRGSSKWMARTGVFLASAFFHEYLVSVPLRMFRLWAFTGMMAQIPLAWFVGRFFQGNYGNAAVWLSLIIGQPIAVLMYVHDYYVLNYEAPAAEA
Kind of assay: In-vitro DGAT1 assay (14C oleoyl CoA, hDGAT1 microsomes from Sf9 cells). The note with it: at 1 μM.
On to `CC(C)[C@@H](C(=O)O)N1Cc2ccc(-c3ccc(NC(=O)c4ccc(-c5ccccc5)cc4)cc3Cl)cc2C1=O` [Example 482, (S)-2-(6-(4-Biphenyl-4-ylcarboxamido-2-chlorophenyl)-1-oxoisoindolin-2-yl)-3-methylbutanoic acid], for which the “% Inhibition of hDGAT1” value was “++ (>50% Inhibition)”.

`CC(C)[C@@H](C(=O)O)N1Cc2ccc(-c3cnc(NC(=O)c4ccc(-c5ccccc5)cc4)cn3)cc2C1=O` [Example 507, (S)-2-(6-(5-Biphenyl-4-ylcarboxamidopyrazin-2-yl)-1-oxoisoindolin-2-yl)-3-methylbutanoic acid]: the “% Inhibition of hDGAT1” value was “++ (>50% Inhibition)”.

Still in this assay, the particulars now being: read-out: % Inhibition of hDGAT1.
In the case of `Cc1cc(NC(=O)c2ccc(OC(F)(F)F)cc2)ccc1-c1ccc2c(c1)C(=O)N([C@H](C(=O)O)C(C)C)C2` [Example 476, (S)-3-Methyl-2-(6-(2-methyl-4-(4-(trifluoromethoxy)benzamido)phenyl)-1-oxoisoindolin-2-yl)butanoic acid], the inhibition at 1 µM was over 50%.

Regarding `CC(C)[C@@H](C(=O)O)N1Cc2ccc(-c3ccc(NC(=O)c4ccc(C(C)(C)C)cc4)cc3Cl)cc2C1=O` [Example 480, (S)-2-(6-(4-(4-tert-Butylbenzamido)-2-chlorophenyl)-1-oxoisoindolin-2-yl)-3-methylbutanoic acid], the inhibition at 1 µM is over 50%.

In the case of `CCCCOc1ccc(C(=O)Nc2ccc(-c3ccc4c(c3)C(=O)N([C@H](C(=O)O)C(C)C)C4)c(Cl)c2)cc1` [Example 484, (S)-2-(6-(4-(4-Butoxybenzamido)-2-chlorophenyl)-1-oxoisoindolin-2-yl)-3-methylbutanoic acid], the inhibition at 1 µM was over 50%.

Consider `CCCCCc1ccc(C(=O)Nc2ccc(-c3ccc4c(c3)C(=O)N([C@H](C(=O)O)C(C)C)C4)c(Cl)c2)cc1` [Example 486, (S)-2-(6-(2-Chloro-4-(4-pentylbenzamido)phenyl)-1-oxoisoindolin-2-yl)-3-methylbutanoic acid], for which the inhibition at 1 µM was over 50%.

As for `CC(C)[C@@H](C(=O)O)N1Cc2ccc(-c3ccc(NC(=O)c4ccc(OC(F)(F)F)cc4)cc3Cl)cc2C1=O` [Example 488, (S)-2-(6-(2-Chloro-4-(4-(trifluoromethoxy)benzamido)phenyl)-1-oxoisoindolin-2-yl)-3-methylbutanoic acid], the inhibition at 1 µM was over 50%.

Turning to `CC(C)[C@@H](C(=O)O)N1Cc2ccc(-c3ccc(NC(=O)c4ccc(C(C)(C)C)cc4)nc3)cc2C1=O` [Example 492, (S)-2-(6-(6-(4-tert-Butylbenzamido)pyridin-3-yl)-1-oxoisoindolin-2-yl)-3-methylbutanoic acid], the inhibition at 1 µM is over 50%.

Turning to `CC(C)[C@@H](C(=O)O)N1Cc2ccc(-c3ccc(NC(=O)c4ccc(C(C)(C)C)cc4)nn3)cc2C1=O` [Example 498, (S)-2-(6-(6-(4-tert-Butylbenzamido)pyridazin-3-yl)-1-oxoisoindolin-2-yl)-3-methylbutanoic acid], the inhibition at 1 µM was over 50%.

In the case of `CCCCCc1ccc(C(=O)Nc2ccc(-c3ccc4c(c3)C(=O)N([C@H](C(=O)O)C(C)C)C4)nn2)cc1` [Example 500, (S)-3-Methyl-2-(1-oxo-6-(6-(4-pentylbenzamido)pyridazin-3-yl)isoindolin-2-yl)butanoic acid], the inhibition at 1 µM is over 50%.

Regarding `CC(C)[C@@H](C(=O)O)N1Cc2ccc(-c3ccc(NC(=O)c4ccc(OC(F)(F)F)cc4)nn3)cc2C1=O` [Example 502, (S)-3-Methyl-2-(1-oxo-6-(6-(4-(trifluoromethoxy)benzamido)pyridazin-3-yl)isoindolin-2-yl)butanoic acid], the inhibition at 1 µM was over 50%.

Regarding `CC(C)[C@@H](C(=O)O)N1Cc2ccc(-c3cnc(NC(=O)c4ccc(C(C)(C)C)cc4)cn3)cc2C1=O` [Example 505, (S)-2-(6-(5-(4-tert-Butylbenzamido)pyrazin-2-yl)-1-oxoisoindolin-2-yl)-3-methylbutanoic acid], the inhibition at 1 µM was 10 to 50%.

Broadly, the inhibition is the change of the read-out against control, counted positive when it falls.
